According to US20250345287A1, “COMPOSITION COMPRISING A MIXTURE OF AT LEAST ONE OIL AND ONE OR MORE SEMIFLUORINATED ALKANES, A USE OF THE COMPOSITION FOR TREATING A DISEASE AS WELL AS A METHOD OF PRODUCING THE COMPOSITION AND CORRESPONDING KITS” (Fluoron GmbH, priority 2024, published 2025):
Like-named read-outs stand apart in the source and are kept apart here.

Assay: Drug solubility/uptake in VitreoDens, posterior segment model
Protocol: Drugs were dissoluted in BSS in clinically relevant concentrations and placed in direct contact with VitreoDens in a ratio of 1:9. 50 μl of the hydrophilic phase were removed from the experiment after 1, 6 and 24 hours and drug concentration was determined using HPLC.
For all the tested small molecule drugs HPLC or HPLC-MS (Agilent 1100 Series) with a reversed-phase C18 column (Chromolith® Performance RP-18e, Merck KGaA Darmstadt, Germany) was performed. Calibration curves and exemplary HPLC runs for each active substance are presented in the Supplementary Materials.
Thus, the solubility of a variety of drugs was tested in VitreoDens in an established posterior segment model (FIGS. 7A and 7B) A >90% fill is mostly thought of as a sufficient fill. Thus, this ratio, given a vitreous cavity volume of 5 ml, was recreated in negatively charged glass vials. First, the drug is injected into the hydrophilic phase at a certain concentration, aliquots of the hydrophilic phase are recovered after certain time points to assess the distribution of the drug in the hydrophilic phase and in VitreoDens (FIG. 7A).

solubility in VitreoDens | Structure (SMILES) | solubility in VitreoDens (in-vitro, posterior segment model, FIG. 7C)
excellent solubility | C=CC[C@@H]1/C=C(\C)C[C@H](C)C[C@H](OC)[C@H]2O[C@@](O)(C(=O)C(=O)N3CCCC[C@H]3C(=O)O[C@H](/C(C)=C/[C@@H]3CC[C@@H](O)[C@H](OC)C3)[C@H](C)[C@@H](O)CC1=O)[C@H](C)C[C@@H]2OC [Tacrolimus] | –
excellent solubility | CC(=O)[C@]1(O)Cc2c(O)c3c(c(O)c2[C@@H](O[C@H]2C[C@H](N)[C@H](O)[C@H](C)O2)C1)C(=O)c1ccccc1C3=O [Idarubicin] | –
– | O=c1[nH]cc(F)c(=O)[nH]1 [5-Fluoruracil] | excellent solubility
excellent solubility | C[C@@H](c1ncncc1F)[C@](O)(Cn1cncn1)c1ccc(F)cc1F [voriconazole] | –
